Some test systems named below: ACHN; CAKI-1; COLO 205; EKVX; HCT-15; K562; LOX IMVI; MCF7; MDA-N; MOLT-4; OVCAR-5; RPMI-8226; SF-295; SF-539; SK-OV-3; UACC-257; UACC-62; TK-10.
What all share (test): NCI tumour cell line growth inhibition, 48 h

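A five-concentration, 48-hour dose response in 96-well plates underlies each endpoint, interpolated linearly between surrounding concentrations. The concentration for 50% growth inhibition is given as GI50.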 Calls of active or inactive are those of the source. Rule as the data show it: active = GI50 up to about 1.1 µM and inactive = higher.

Consider `COc1c(-c2ccc(F)cc2)oc2cc(O)cc(O)c2c1=O`, for which the GI50 in the test with ACHN is 30.7 µM (inactive); in the test on CAKI-1, 24.3 µM (inactive); in the test on COLO 205 it was 20.9 µM (inactive); in the test with EKVX, 14.6 µM (inactive); in the test on HCT-15, 18.5 µM; with K562, 38.9 µM (inactive). The GI50 was 21.8 µM (inactive) in the test on LOX IMVI; 33.7 µM (inactive) with MCF7; 26.2 µM (inactive) in the test with MDA-N; 24.2 µM (inactive) with MOLT-4; 25.5 µM (inactive) in the test on OVCAR-5; 30.4 µM (inactive) in the test with RPMI-8226. The GI50 in the test with SF-295 is 26.1 µM (inactive); with SF-539, 19.8 µM (inactive); in the test on SK-OV-3, 30.5 µM (inactive).
On to `CSc1nc2c(c(=O)[nH]1)N=C(c1ccc(Cl)cc1)CC(c1ccccc1)N2` (stereo not given), for which the GI50 in the test on ACHN was 15.6 µM (inactive); in the test with CAKI-1 it was 20 µM (inactive); with COLO 205, 19.8 µM (inactive); in the test on EKVX, 18.3 µM (inactive); in the test with K562 it was 22.2 µM (inactive); with LOX IMVI, 18.7 µM (inactive). For the same compound, the GI50 in the test with MCF7 was 19.1 µM (inactive); with MDA-N it was 17.6 µM (inactive); in the test with MOLT-4, 17.7 µM (inactive); in the test with OVCAR-5, 18.1 µM (inactive); in the test with RPMI-8226, 17.4 µM (inactive); in the test on SF-295, 18.6 µM (inactive). The GI50 was 19.2 µM (inactive) with SF-539, 16.2 µM (inactive) in the test on UACC-257 and > 10 µM (inactive) with UACC-62.
For `CC(=O)OCC1OC(n2c(C)c(/N=N/c3ccc(C)cc3)c(C)c(C#N)c2=S)C(OC(C)=O)C(OC(C)=O)C1OC(C)=O` (stereo not given), the GI50 in the test with ACHN, in the test with CAKI-1, in the test on COLO 205, with K562, with LOX IMVI and with MCF7 was > 100 µM (inactive) throughout. In addition, the GI50 in the test with MDA-N was > 100 µM (inactive); in the test on MOLT-4, > 100 µM (inactive); in the test with OVCAR-5, > 100 µM (inactive); in the test on RPMI-8226 it was > 100 µM (inactive); in the test on SF-295, 90.6 µM (inactive); in the test on SF-539, 39.3 µM (inactive). Also, the GI50 in the test with SK-OV-3 was > 100 µM (inactive); in the test with TK-10, > 100 µM (inactive); in the test on UACC-257 it was > 100 µM (inactive); in the test on UACC-62 it was 50.2 µM (inactive).
Consider `CC[C@]12C=CCN3CCC4(c5cc(/N=N/c6ccccc6)c(OC)cc5N(C)[C@H]4[C@@](O)(C(=O)OC)[C@@H]1OC(C)=O)[C@@H]32` (stereo not given in full), for which the GI50 is 16.1 µM (inactive) in the test with ACHN; 24.2 µM (inactive) in the test on CAKI-1; 25.2 µM (inactive) in the test on COLO 205; 16.5 µM (inactive) in the test with EKVX; 17.3 µM with HCT-15; 18.8 µM (inactive) with K562. The GI50 is 17.3 µM (inactive) with LOX IMVI; 16.3 µM (inactive) with MCF7; 18.4 µM (inactive) in the test on MDA-N; 13.6 µM (inactive) in the test with MOLT-4; 17 µM (inactive) in the test with OVCAR-5; 19.2 µM (inactive) in the test with RPMI-8226. The GI50 is 15.6 µM (inactive) in the test with SF-295; 21 µM (inactive) in the test on SF-539; 17.6 µM (inactive) in the test with TK-10; 16.6 µM (inactive) in the test with UACC-257; 14.5 µM (inactive) in the test with UACC-62.
For the compound `COc1ccc(/N=N/C(=N/NC(=O)c2ccccc2)c2ccc(N(CCC#N)CCC#N)cc2C)cc1`, the GI50 with ACHN is 54.3 µM (inactive); in the test on CAKI-1 it was > 100 µM (inactive); with COLO 205, 32.8 µM (inactive); with EKVX it was 97.9 µM (inactive); with HCT-15, 26.1 µM; with K562 it was 19.5 µM (inactive). Moreover, the GI50 in the test on MCF7 is 18.5 µM (inactive); with MDA-N, 4.7 µM (inactive); in the test with MOLT-4 it was 49.5 µM (inactive); in the test on OVCAR-5 it was > 100 µM (inactive); in the test on RPMI-8226, > 100 µM (inactive); in the test on SF-295 it was 21.5 µM (inactive). The GI50 in the test with SF-539 is 19.3 µM (inactive); in the test on SK-OV-3 it was 75.3 µM (inactive); in the test with TK-10, > 100 µM (inactive); with UACC-257 it was 78.7 µM (inactive); with UACC-62 it was 38.5 µM (inactive).
Consider `CCN(CC)CCC(=O)/C=C/c1ccccc1`, for which the GI50 with ACHN is 12.6 µM (inactive); in the test with CAKI-1, 3.27 µM (inactive); with COLO 205, 7.11 µM (inactive); with EKVX it was 13.9 µM (inactive); with HCT-15, 15.6 µM; in the test on K562, 3.05 µM (inactive). The GI50 with LOX IMVI was 2.54 µM (inactive); in the test with MCF7 it was 2.48 µM (inactive); with MDA-N it was 13.3 µM (inactive); in the test on MOLT-4, 6.3 µM (inactive); in the test with OVCAR-5, 17.5 µM (inactive); in the test on RPMI-8226, 1.97 µM (inactive). The GI50 in the test with SF-295 was 18.8 µM (inactive); in the test with SF-539, 19.9 µM (inactive); in the test on TK-10, 17.7 µM (inactive); in the test on UACC-257, 16.2 µM (inactive).
`C/C=C/[C@@]1(OC(=O)c2ccccc2)C[C@@H]2CCCC[C@@H]21`: the GI50 is 17.7 µM (inactive) with ACHN; 17.6 µM (inactive) with CAKI-1; 16.7 µM (inactive) with EKVX; 19.5 µM in the test with HCT-15; 19.8 µM (inactive) in the test with K562; 21.9 µM (inactive) in the test with LOX IMVI. For the same compound, the GI50 in the test on MCF7 was 18.9 µM (inactive); in the test with MDA-N, 17.4 µM (inactive); in the test with MOLT-4 it was 17.9 µM (inactive); in the test with OVCAR-5, 17.1 µM (inactive); in the test on RPMI-8226 it was 16.6 µM (inactive); with SF-295 it was 18.6 µM (inactive). Further, the GI50 is 17.5 µM (inactive) with SF-539; 18.5 µM (inactive) in the test on SK-OV-3; 15 µM (inactive) in the test on TK-10; 18.3 µM (inactive) in the test with UACC-257; 16.7 µM (inactive) with UACC-62.
For the compound `C=C1C2C[C@@H]3O[C@H]4C[C@H]5O[C@@]6(C[C@@H]7O[C@]8(C[C@H](C)[C@@H]9O[C@@H]%10CC(CO)O[C@@H]%10C[C@@H]9O8)C[C@H](C)[C@@H]7O6)C[C@H]5O[C@H]4[C@H](C)[C@H]3OC(=O)C[C@H]3CC[C@@H]4OC5[C@H]6O[C@]7(CC[C@H]8CC(=C)[C@H](CC[C@@H](C[C@H]1C)O2)O8)CC6O[C@@H]5[C@@H](O7)[C@H]4O3` (stereo not given in full), the GI50 was < 0.0001 µM (active) in the test with ACHN; < 0.0001 µM (active) in the test on CAKI-1; < 0.0001 µM (active) with COLO 205; < 0.0001 µM (active) in the test with EKVX; under 0.0001 µM in the test with HCT-15; < 0.0001 µM (active) in the test on K562. Moreover, the GI50 in the test on LOX IMVI, in the test on MCF7, in the test with MDA-N, with MOLT-4, with OVCAR-5 and in the test on RPMI-8226 was < 0.0001 µM (active) throughout. Moreover, the GI50 with SF-295, in the test with SK-OV-3, in the test on TK-10, in the test on UACC-257 and with UACC-62 was < 0.0001 µM (active) each time.
As for `Nc1nc(N)c2cc(Sc3cccc(C(F)(F)F)c3)ccc2n1` [WR-159412], the GI50 is 0.885 µM (active) in the test with ACHN; 1.17 µM (inactive) in the test with CAKI-1; 1.21 µM (inactive) with COLO 205; 3.56 µM (inactive) in the test with EKVX; 0.499 µM in the test on HCT-15; 0.0883 µM (active) with K562. The GI50 in the test on MCF7 was 2.86 µM (inactive); in the test on MDA-N, 0.371 µM (active); in the test on MOLT-4 it was 0.271 µM (active); in the test with OVCAR-5, 13 µM (inactive); in the test on RPMI-8226, 1.93 µM (inactive); in the test on SF-295, 0.656 µM (active). Moreover, the GI50 is 3.17 µM (inactive) in the test with SF-539, 9.08 µM (inactive) in the test with SK-OV-3, 10.1 µM (inactive) in the test on TK-10 and 0.755 µM (active) in the test on UACC-62.
For `CCOC(=O)c1cn(-c2ccc([N+](=O)[O-])cc2)c(=S)n2c1nc1ccccc12`, the GI50 with ACHN is 32 µM (inactive); in the test on CAKI-1 it was 42.9 µM (inactive); in the test on COLO 205, 23.2 µM (inactive); in the test on EKVX it was 53.7 µM (inactive); in the test on HCT-15 it was 35.4 µM; with K562 it was 46.5 µM (inactive). Besides, the GI50 in the test on LOX IMVI was 56.5 µM (inactive); with MCF7, 33.2 µM (inactive); with MDA-N, 39.7 µM (inactive); with MOLT-4 it was 28 µM (inactive); with OVCAR-5, > 100 µM (inactive); in the test with RPMI-8226 it was 24.6 µM (inactive). Further, the GI50 in the test on SF-295 is 45.6 µM (inactive); with SF-539 it was 32 µM (inactive); with UACC-257 it was 30.7 µM (inactive); in the test with UACC-62, 31.8 µM (inactive).
Turning to `CC1=NN(c2cccc(Cl)c2)C2(SCC(=O)N2c2nc3ccccc3s2)/C1=C\c1ccc(N(C)C)cc1` (stereo not given), the GI50 in the test on ACHN is 26.1 µM (inactive); in the test with CAKI-1, 85.9 µM (inactive); in the test on EKVX, > 100 µM (inactive); in the test on HCT-15, 56.1 µM; in the test on K562, 43.8 µM (inactive); in the test with LOX IMVI, > 100 µM (inactive). For the same compound, the GI50 with MCF7 was 38.7 µM (inactive); with MDA-N, > 100 µM (inactive); in the test with MOLT-4, 48.5 µM (inactive); in the test with OVCAR-5 it was > 100 µM (inactive); in the test on RPMI-8226, 44.2 µM (inactive); in the test on SF-295, 42.2 µM (inactive). Moreover, the GI50 was 52.2 µM (inactive) with SF-539, 17.5 µM (inactive) in the test with SK-OV-3, 33 µM (inactive) in the test on TK-10 and 56.8 µM (inactive) with UACC-257.
In the case of `O=S(=O)(c1ccc(Br)cc1)N1CCN(S(=O)(=O)c2ccc(Br)cc2)CC1`, the GI50 is > 100 µM (inactive) with ACHN; > 100 µM (inactive) in the test on CAKI-1; > 100 µM (inactive) with COLO 205; > 100 µM (inactive) in the test with EKVX; over 100 µM in the test on HCT-15; 5.87 µM (inactive) in the test on K562. The GI50 with LOX IMVI was > 100 µM (inactive); in the test with MCF7, > 100 µM (inactive); with MDA-N it was > 100 µM (inactive); with MOLT-4 it was 1.71 µM (inactive); in the test with OVCAR-5 it was > 100 µM (inactive); in the test on RPMI-8226, > 100 µM (inactive). The GI50 with SF-295, with SK-OV-3, in the test with TK-10, with UACC-257 and in the test with UACC-62 was > 100 µM (inactive) in each case.

For the origin of these results see ChEMBL document CHEMBL1201862, “PubChem BioAssay data set” (2004).
